What was measured:
ClbP [1] = biological target: T1, ClbP (Escherichia coli, UniProt Q0P7K6); test: ClbP cell lysate activity (inhibition) assay, fluorogenic substrate; format: biochemical; conditions: ClbP Lysate Inhibition Assay: IC50, E. coli ClbP+ lysozyme-EDTA lysates, 5 μM fluorogenic substrate, inhibitor 0-300 μM, 37° C., singlicate
Protocol: Cell Lysate Activity Assay
(§1) 1) E. coli ClbP+ were taken from a frozen stock and streaked onto BHI plates. They were grown aerobically at 37° C. overnight in the incubator.
(§2) 1) A single colony was selected from the plate and inoculated into 30 mL LB in a 50 mL conical vial eight times (240 mL total). The bacteria were grown aerobically overnight (16-20 h) at 37° C. on a nutator with rocking.
1) The saturated overnight culture was centrifuged to create a firm pellet (3,200 g, 10 min, 4° C.). The supernatant was removed and then the pellet was resuspended in 30 mL sterile PBS.
2) The bacteria were centrifuged again (3,200 g, 10 min, 4° C.). The supernatant was removed, and the pellet was resuspended in sterile PBS buffer (3 mL) in each 8 tubes to make a tenfold concentrated bacterial solution.
3) A lysozyme-EDTA (LE) solution was made in ddH2O (0.05 mg/mL lysozyme, 0.25 M EDTA).
4) For each of the eight tubes, LE solution (3 mL) was mixed with concentrated bacterial solution (3 mL). This mixture was incubated at 37° C. for 30 min to generate the lysates.
5) The lysates (192 μL) were mixed with inhibitor (6 μL, final concentration was 300, 100, 33.3, 11.1, 3.7, 1.2, 0.4, or 0 μM). Fluorogenic substrate (2 μL, final concentration 5 μM) was immediately added across the plate to initiate the reaction. As a control, each plate contained Compound No. III in this dose response curve. The final concentration of bacterial lysates was fivefold concentrated compared to the original saturated overnight culture. Carryover from DMSO was 4% (v/v). All compounds were tested in singlicate.
(§3) 6) The plate was loaded into a spectrophotometer preheated to 37° C. The fluorescence was recorded every 2 min for 46 min. The excitation wavelength was 360 nm (20 nm bandwidth), the emission wavelength was 460 nm (20 nm bandwidth), the optics position was bottom, the gain was 65, the light source was a tungsten bulb, and the read speed was normal.
(§4) 7) The linear portion of the fluorescence increase was 0-20 min. The rate of fluorescence increase (A.U./min) for each well in an inhibitor series was normalized to the 0 μM inhibitor condition. The normalized activity as a function of inhibitor concentration was then fit to a three parameter IC50 curve in Graphpad Prism.
(§5) “A” indicates an IC50 value less than 100 μM, “B” indicates an IC50 between 100 and 300 μM, “C” indicates an IC50 above 300 μM.

ClbP [2] = biological target: T1, ClbP; test: ClbP whole cell activity (inhibition) assay, fluorogenic substrate; format: cell-based, E. coli
Protocol: Whole Cell Activity Assay
as §1, §2
1) The saturated overnight culture was centrifuged to create a firm pellet (3,200 g, 10 min, 4° C.). In a biosafety cabinet, the supernatant was removed and then the pellet was resuspended in 30 mL sterile PBS.
2) The bacteria were centrifuged again (3,200 g, 10 min, 4° C.). The supernatant was removed, and the pellet was resuspended in sterile PBS buffer (6 mL) in each of the 8 tubes. This fivefold concentrated bacterial solution was the working solution.
3) The bacterial working solution (192 μL) was mixed with inhibitor (6 μL, final concentration was 300, 100, 33.3, 11.1, 3.7, 1.2, 0.4, or 0 μM). Fluorogenic substrate (2 μL, final concentration 5 μM) was immediately added across the plate to initiate the reaction. As a control, each plate contained Compound No. III in this dose response curve. The bacterial concentration was fivefold concentrated compared to the original saturated overnight culture. Carryover from DMSO was 4% (v/v). All compounds were tested in singlicate.
as §3, with “4)” for “6)”
as §4, with “5)” for “7)”, “10-30” for “0-20”
as §5

Full-length WT ClbP = Full-length WT ClbP (Escherichia coli, UniProt Q0P7K6); test: ClbP molecular (purified protein) enzymatic inhibition assay, fluorogenic substrate; format: biochemical, E. coli
Protocol: ClbP Molecular (Purified Protein) Assay
1) Full-length WT ClbP was thawed on ice. A diluted enzyme solution (2 nM) was made by mixing 3.57 μL of enzyme with 20 mL of reaction buffer (50 mM Tris pH 8.0, 200 mM NaCl, 0.02% (w/v) n-dodecyl-b-D-maltoside (DDM)).
2) In a 96 well plate, the diluted protein solution (73.5 μL) was mixed with inhibitor (1.5 μL, of varying concentrations, see below) and preincubated for 15 min at room temperature. Then, reaction buffer (75 μL) containing 10 μM fluorogenic substrate was added to initiate the reaction. After addition of substrate, the final concentrations were 1 nM full-length WT ClbP, 5 μM fluorogenic substrate in 50 mM Tris pH 8.0, 200 mM NaCl, 0.02% (w/v) DDM, with either 0, 0.14, 0.41, 1.2, 3.7, 11, 33, or 100 μM inhibitor. For all conditions, the DMSO carryover was 2% (v/v) at the preincubation stage and 1% in the reaction stage. Compound No. III was always present as a control in each plate, and all compounds were tested in singlicate. In previous assays, the Km of the fluorogenic substrate was determined to be approximately 5 μM.
3) Immediately after addition of substrate to enzyme, the plate was transferred into a spectrophotometer held at room temperature. The fluorescence was recorded every 1.5 min for 15 min. The excitation wavelength was 360 nm (20 nm bandwidth), the emission wavelength was 440 nm (20 nm bandwidth), the optics position was bottom, the gain was extended, the light source was a xenon flash lamp, and the read speed was normal.
as §4, with “4)” for “7)”, “is at least from 0-6 min, so this time regime is used.” for “was 0-20 min.”
as §5

| Structure (SMILES) | IC50 (ClbP [1]) [µM] | IC50 (ClbP [2]) [µM] | IC50 (Full-length WT ClbP) [µM] |
| --- | --- | --- | --- |
| NC(=O)C[C@@H](NC(=O)CCCC1CCCCC1)C(=O)NCCc1ccccn1 [Compound CCCIII] | < 100 | < 100 | < 100 |
| CCCCCCCC(=O)N[C@H](CC(N)=O)C(=O)NC[C@@H](C)c1ccccc1 [Compound CCCII] | < 100 | < 100 | < 100 |
| NC(=O)C[C@@H](NC(=O)CCCCCCCCC(F)(F)F)C(=O)NCCc1ccc(O)cc1 [Compound CCCIV] | < 100 | < 100 | < 100 |
| CCCCCCCCCC(=O)N[C@H](CC(N)=O)C(=O)NCCc1ccccn1 [Compound CCCIX] | < 100 | < 100 | < 100 |
| CCCCCCCC(=O)N[C@H](CC(N)=O)C(=O)NC[C@H](C)c1ccccc1 [Compound CCCI] | < 100 | < 100 | < 100 |
| CN1CCC(CCCC(=O)N[C@H](CC(N)=O)C(=O)NCCc2ccc(O)cc2)CC1 [Compound CCCVIII] | > 300 | < 100 | > 300 |
| CCCCCCCCCCCC(=O)N[C@H](CC(N)=O)C(=O)NCCc1ccc(O)cc1 [Compound CCCVII] | < 100 | < 100 | < 100 |
| CCCCCCCC(=O)N[C@H](CC(N)=O)C(=O)NCCc1c(F)cc(O)cc1F [Compound CCCVI] | < 100 | < 100 | < 100 |
| NC(=O)C[C@@H](NC(=O)CCCCCCC(F)(F)F)C(=O)NCCc1ccc(O)cc1 [Compound CCCV] | < 100 | < 100 | < 100 |
| CCCCCCCC(=O)N[C@H](CC(N)=O)c1ncnn1Cc1ccccc1 [Compound CCCXII] | > 300 | > 300 | > 300 |
| CCCCCCCC(=O)N[C@](C)(CC(N)=O)C(=O)NCCc1ccc(O)cc1 [Compound CCCXI] | > 300 | > 300 | > 300 |
| CCCCCCCCCCCC(=O)N[C@H](CC(N)=O)C(=O)NCCc1ccccn1 [Compound CCCX] | < 100 | > 300 | < 100 |
| CNCCCCCC(=O)N[C@H](CC(N)=O)C(=O)NCCc1ccc(O)cc1 [Compound CCC] | > 300 | > 300 | > 300 |
| CCCCCCCC(=O)N[C@H](CC(N)=O)C(=O)N[C@H](C)Cc1ccccc1 [Compound CCIII] | < 100 | < 100 | < 100 |
| CCCCCCCC(=O)N[C@H](CC(N)=O)C(=O)N[C@@H](C)Cc1ccccc1 [Compound CCIV] | > 300 | > 300 | 100 to 300 |
| CCCCCCCNC(=O)[C@H](CC(N)=O)NC(=O)OCc1ccccc1 [Compound CCIX] | > 300 | > 300 | 100 to 300 |
| CCCCCCCC(=O)N[C@H](CC(N)=O)C(=O)NCc1ccccc1 [Compound CCI] | < 100 | < 100 | < 100 |
| NC(=O)C[C@@H](NC(=O)CCCc1ccc(O)cc1)C(=O)NCCc1ccc(O)cc1 [Compound CCLIII] | < 100 | < 100 | < 100 |

| Structure (SMILES) | IC50 (ClbP [1]) [µM] | IC50 (ClbP [2]) [µM] | IC50 (Full-length WT ClbP) [µM] |
| --- | --- | --- | --- |
| NC(=O)C[C@@H](NC(=O)CCCC1CCNCC1)C(=O)NCCc1ccc(O)cc1 [Compound CCLII] | > 300 | > 300 | 100 to 300 |
| CCCCCCCC(=O)N[C@H](CC(N)=O)C(=O)NCCOc1ccccc1 [Compound CCLIV] | < 100 | < 100 | < 100 |
| CCCCCC(=O)N[C@H](CC(N)=O)C(=O)NCCc1ccc(C(F)(F)F)cc1 [Compound CCLIX] | 100 to 300 | – | 100 to 300 |
| NC(=O)C[C@@H](NC(=O)CCCc1ccncc1)C(=O)NCCc1ccc(O)cc1 [Compound CCLI] | 100 to 300 | < 100 | < 100 |
| CCCCCCCC(=O)N[C@H](CC(N)=O)C(=O)c1nccn1Cc1ccccc1 [Compound CCLVIII] | > 300 | > 300 | 100 to 300 |
| CCCCCCCC(=O)N[C@H](CC(N)=O)C(=O)c1nccn1C [Compound CCLVII] | > 300 | > 300 | 100 to 300 |
| CCCCCCCC(=O)N[C@H](CC(N)=O)C(=O)NCCc1cc(F)c(O)c(F)c1 [Compound CCLVI] | < 100 | < 100 | < 100 |
| CCCCCCCC(=O)N[C@H](CC(N)=O)C(=O)NCCOc1c(F)cccc1F [Compound CCLV] | < 100 | < 100 | < 100 |
| NC(=O)C[C@@H](NC(=O)CCCC1CCCC1)C(=O)NCCc1ccccc1 [Compound CCLXIII] | < 100 | < 100 | < 100 |
| NC(=O)C[C@@H](NC(=O)/C=C/CC1CCCC1)C(=O)NCCc1ccccc1 [Compound CCLXII] | > 300 | > 300 | < 100 |
| NC(=O)C[C@@H](NC(=O)CCCCCCC(=O)O)C(=O)NCCc1ccccc1 [Compound CCLXIV] | > 300 | > 300 | 100 to 300 |
| NC(=O)C[C@@H](NC(=O)CCCc1ccccc1)C(=O)NCCc1ccccc1 [Compound CCLXIX] | < 100 | < 100 | < 100 |
| NC(=O)C[C@@H](NC(=O)CCCC1CCCC1)C(=O)NCCc1ccc(O)cc1 [Compound CCLXI] | < 100 | < 100 | < 100 |
| CCCC(=O)N[C@H](CC(N)=O)C(=O)NCCc1ccccc1 [Compound CCLXVIII] | > 300 | < 100 | 100 to 300 |
| CCCCCC(=O)N[C@H](CC(N)=O)C(=O)NCCc1ccccc1 [Compound CCLXVII] | 100 to 300 | < 100 | < 100 |
| CCCCCCCC(=O)N[C@H](CC(N)=O)C(=O)NCCc1ccc(O)cc1 [Compound CC] | – | – | < 100 |
| CCCCCCCNC(=O)[C@H](CC(N)=O)NC(=O)OCC [Compound XCIX] | > 300 | > 300 | – |

From patent US20230234917A1, “ASPARAGINE DERIVATIVES AND METHODS OF USING SAME” (priority 2020, published 2023)
